# Test results published in patent publication US4617149A, “Growth hormone release factor analogs” (Eli Lilly and Company, priority 1983, dated 1986).
# No end group written: not given here.
# How the values were obtained:
# [1] = stability of hpGRF control solution by HPLC; assay type: physicochemical; conditions: 0.5 mg hpGRF/ml in 0.01M HCl, stored at 22° C., over six hours
# Procedure: One mg of hpGRF, obtained from Peninsula Laboratories, was solubilized in one ml of 0.01M hydrochloric acid ([…]). The solution was divided into four equal aliquots, and each was diluted to a concentration of 0.5 mg hpGRF/ml by the addition of 250 μl of 0.01M HCl. The first aliquot was removed and stored at 22° C. for the duration of the experimentation, to serve as a control. Analysis of the control and the extent of each respective chemical modification with hydrogen peroxide, cyanogen bromide, and methyl iodide, described hereinbelow, was performed by high performance liquid chromatography (HPLC). Quantitation was achieved by peak height measurement at 214 nm, of a symmetrical peak eluting at 10 minutes from a (0.46×25 cm) Zorbax C8, 150 Angstrom reverse phase column, at 45° C. in 0.1M ammonium phosphate buffer, pH 7.2/27.5% 1-propanol, v/v. […] Each modification reaction was quenched by a 5:1 dilution (hpGRF final concentration of 0.1 mg/ml) with addition of two ml of 0.1M methionine/0.01M HCl, pH 3.5. Samples were divided and stored at -20° C. and 4° C. prior to analysis of biological activity.
# [2] = peptide obtained by selective S-methylation of glucagon; cited from earlier work
# [3] = system: pituitary release of growth hormone; conditions: in vitro, cited from earlier work
compound,measurement,setting,value
CC[C@H](C)[C@H](NC(=O)[C@H](C)NC(=O)[C@H](CC(=O)O)NC(=O)[C@H](C)NC(=O)[C@@H](N)Cc1ccc(O)cc1)C(=O)N[C@@H](Cc1ccccc1)C(=O)N[C@H](C(=O)N[C@@H](CC(N)=O)C(=O)N[C@@H](CO)C(=O)N[C@@H](Cc1ccc(O)cc1)C(=O)N[C@@H](CCCNC(=N)N)C(=O)N[C@@H](CCCCN)C(=O)N[C@H](C(=O)N[C@@H](CC(C)C)C(=O)NCC(=O)N[C@@H](CCC(N)=O)C(=O)N[C@@H](CC(C)C)C(=O)N[C@@H](CO)C(=O)N[C@@H](C)C(=O)N[C@@H](CCCNC(=N)N)C(=O)N[C@@H](CCCCN)C(=O)N[C@@H](CC(C)C)C(=O)N[C@@H](CC(C)C)C(=O)N[C@@H](CCC(N)=O)C(=O)N[C@@H](CC(=O)O)C(=O)N[C@H](C(=O)N[C@@H](CCSC)C(=O)N[C@@H](CO)C(=O)N[C@@H](CCCNC(=N)N)C(=O)N[C@@H](CCC(N)=O)C(=O)N[C@@H](CCC(N)=O)C(=O)NCC(=O)N[C@@H](CCC(=O)O)C(=O)N[C@@H](CO)C(=O)N[C@@H](CC(N)=O)C(=O)N[C@@H](CCC(N)=O)C(=O)N[C@@H](CCC(=O)O)C(=O)N[C@@H](CCCNC(=N)N)C(=O)NCC(=O)N[C@@H](C)C(=O)N[C@@H](CCCNC(=N)N)C(=O)N[C@@H](C)C(=O)N[C@@H](CCCNC(=N)N)C(=O)N[C@@H](CC(C)C)C(N)=O)[C@@H](C)CC)C(C)C)[C@@H](C)O [hpGRF],change in HPLC peak elution time or height,[1],no change in peak elution time or height
glucagon,activity as % of the inherent activity of the native hormone,[2],less than 1%
"hpGRF(1-27)-NH2: shortened GRF analog prepared and tested by Rivier et al. (YADAIFTNSYRKVLGQLSARKLLQDIM-NH2; UniProt P01286 32-58, looked up, fragment)",intrinsic activity,[3],full intrinsic activity
same,potency as % of the potency of hpGRF(1-40)-OH,[3]; relative to hpGRF(1-40)-OH,10-20%
